Measurements as given in US20260000656A1, “ANTIFUNGAL AGENTS WITH ENHANCED ACTIVITY IN ACIDIC PH” (Scynexis, Inc., priority 2017, published 2026).
Where two headings read alike, the source gives them in different places.

Experiments:
[1] = tested on: acute VVC (Candida spp. vaginal infection); assay: clinical; format: in vivo, human; details: for mycological eradication / percentage of patients showing an S&S score of 0 or 1 / mean S&S score / percentage of patients with 0-or-1 S&S score / percentage of patients with clinical cure: SCY-078 600 mg dose arm / fluconazole arm; for mean S&S score: scale 0 to 18; for clinical cure / clinical cure, number of patients: Day 10 Test-of-Cure, mITT, SCY-078 600 mg (300 mg BID 1 day, n=27) / fluconazole 150 mg (n=24); for percentage of patients with 0-or-1 S&S score / percentage of patients with clinical cure: Day 25 Follow-Up visit; for patients who received rescue antifungal medication: through Day 25 Follow-Up, SCY-078 600 mg (n=27) / fluconazole (n=24)
Experimental: (§1) A Phase 2 study was conducted to evaluate the safety, efficacy, tolerability, and pharmacokinetics of five dose regimens of oral SCY-078 (administered as the citrate salt) compared to oral fluconazole in adult, female patients with moderate-to-severe acute VVC (defined as having a signs and symptoms (S&S) score of 7 or greater). A total of 186 intent-to-treat (ITT) patients were randomized into six different treatment arms as follows: five different dosing regimens of oral SCY-078 and one oral fluconazole treatment arm. The modified intent-to-treat (mITT) population was used for efficacy analysis and included 153 patients with culture-confirmed Candida spp. vaginal infection (positive microscopic examination of vaginal secretions showing yeast, vaginal pH≤4.5) at baseline. The doses of SCY-078 tested ranged from 600 mg to 1800 mg total dose administered over the duration of treatment, and the durations of treatment were 1 or 3 days:
(§2) The primary efficacy endpoint was clinical cure, which according to current FDA guidance is defined as complete resolution (score=0) of all signs and symptoms at the Day 10 Test-of-Cure visit without the need of additional antifungal therapy. Secondary endpoints included mycological eradication (negative culture) and a composite endpoint including both clinical cure and mycological eradication. Response was also evaluated based on the percent of patients achieving a noticeable improvement in their signs and symptoms, either by achieving an S&S score of 0 or 1 or an absolute change (reduction) in mean composite S&S score from baseline. An S&S score is based on a patient's reported symptoms (burning, itching, and irritation) and investigator-assessed signs (swelling, redness, and excoriations); each sign and symptom can be absent, mild, moderate, or severe, with a corresponding score from 0 to 3; the total composite scale is 0 to 18 points. Response was further evaluated by assessing the number of patients who received rescue antifungal therapy. Patients were assessed at the Day 10 Test-of-Cure visit and also at a Day 25 Follow-Up visit. The study was not designed to achieve statistically significant differences in any of the evaluated endpoints.

[2] = tested on: VVC; details: oral fluconazole, share of VVC cases, Diflucan label (May 2011); cited from earlier work
[3] = tested on: vulvovaginal candidiasis (Candida spp.); format: in vivo, human; details: for rate of mycological eradication: SCY-078 combined arms / fluconazole arm; for Therapeutic cure (clinical cure and mycological eradication) / mycological eradication / clinical cure: ITT population; for Therapeutic cure (clinical cure and mycological eradication): Day 24 Test-of-Cure visit; for Therapeutic cure (clinical cure and mycological eradication) / mycological eradication: combined SCY-078 arms (n = 64) / fluconazole 150 mg (n = 32); for mycological eradication / clinical cure: Test-of-Cure visit (Day 24); for clinical cure: combined SCY-078 arms (n = 64, 1250 mg then 750 mg QD for 2 or 4 days) / fluconazole 150 mg single dose (n = 32)
Experimental: As a first step of the feasibility evaluation, a proof-of-concept exploratory trial in 96 patients with moderate to severe acute VVC was conducted. Subjects received SCY-078 tablets orally, administered at a dose of 1250 mg on day 1, followed by 750 mg once a day for 2 or 4 days. A comparator group of patients receiving oral fluconazole at the approved dose (150 mg, single dose) was also included.
This study was a proof-of-concept study conducted to evaluate the safety and efficacy of two dosing regimens of oral SCY-078 (administered as the phosphate salt) in subjects presenting with moderate to severe VVC.
Key criteria for inclusion included: • 1. Subjects with moderate to severe VVC, confirmed by positive potassium hydroxide (KOH) test from a vaginal secretion sample • 2. Three vaginitis episodes in the past year that were either confirmed to be caused by Candida spp. or that responded to antifungal therapy
Subjects were randomized in a 1:1:1 ratio to one of the three treatment arms: Oral SCY-078 loading dose of 1250 mg SCY-078, followed by 750 mg SCY-078 QD for 2 days or for 4 days, or Oral Fluconazole 150 mg for 1 day.
Subjects were evaluated on Day 24 (Test-of-Cure visit), Day 60, Day 90, and 120 days (end of study).
The analyses included clinical cure (all signs and symptoms present at baseline improved by at least two points (e.g., from moderate to absent or from severe to mild); after the study started, the FDA proposed that clinical cure is achieved if all signs and symptoms present at baseline are absent), mycological eradication (a negative culture for the baseline yeast pathogen), and therapeutic cure (both clinical cure and mycological eradication). Clinical cure has been proposed by the FDA as the primary endpoint for assessment of efficacy in VVC.
Ninety-six subjects were enrolled (intent-to-treat (ITT) population), and 70 subjects had cultured-confirmed Candida spp. infection (per protocol (PP) population).

[4] = clinical; format: in vivo, human; details: female, human, in vivo, po, 300 mg
Experimental: as §1, §2

[5] = Day 24, per protocol population, SCY-078 Combined (n = 50) / Fluconazole (n = 20)
[6] = Month 4, SCY-078 Combined (n = 50) / Fluconazole (n = 20)
[7] = Day 24, per protocol population
[8] = Day 24, per protocol population, SCY-078 3-Days arm (n = 24)
[9] = Day 24, per protocol population, SCY-078 5-Days arm (n = 26)
[10] = Month 4, SCY-078 3-Days arm (n = 24)
[11] = Month 4, SCY-078 5-Days arm (n = 26)

SMILES | mycological eradication ([1]; Day 10, mITT) | percentage of patients showing an S&S score of 0 or 1 ([1]; Day 10, mITT) | mean S&S score ([1]; Day 10, mITT) | clinical cure [1] | clinical cure, number of patients [1] | mycological eradication ([1]; Day 25) | mean S&S score ([1]; Day 25) | percentage of patients with 0-or-1 S&S score [1] | percentage of patients with clinical cure [1] | patients who received rescue antifungal medication [1] | Clinical Cure (Updated FDA Definition), rate [3, 5] | Clinical Cure, rate [3, 5] | rate of mycological eradication ([3]; Day 24) | Therapeutic cure (clinical cure and mycological eradication) [3] | mycological eradication [3] | clinical cure [3] | Clinical Cure, rate [3, 6] | Recurrences Requiring Antifungal Therapy, rate [3, 6] | “0” Signs and Symptoms, rate [3, 6] | rate of mycological eradication ([3]; Month 4) | other results
OC(Cn1cncn1)(Cn1cncn1)c1ccc(F)cc1F [Fluconazole, reference compound] | 63% | 71% | 1.8 | 58% | 14 | 38% | 2.6 | 58% | 50% | 29% | 55% | 65% | 65% | 56.3% | 68.8% | 65.6% | 65% | 15% | 65% | 60% | therapeutic cure (complete resolution of signs and symptoms, negative KOH examination and negative culture) [2]: approximately half; Therapeutic cure (clinical cure and mycological eradication) ([3]; listed as fluconazole): 56.3%
CC(C)[C@@H](C)[C@@]1(C)CC[C@]2(C)[C@H]3CC[C@@H]4[C@@]5(COC[C@]4(C)[C@@H](OC[C@](C)(N)C(C)(C)C)[C@H](n4ncnc4-c4ccncc4)C5)C3=CC[C@@]2(C)[C@@H]1C(=O)O [SCY-078] | 63% | 70% | 1.0 | 52% | 14 | 48% | 0.4 | 81% | 70% | 4% | 70% | 76% | 70% | 56.3% | 70.3% | 78.1% | 88% | 4% | 80% | 74% | AUC(0-t) [4]: 3 to 8 µM·h; Cmax [4]: 0.2 to 0.5 µM; % Δ SCY-078 (combined) vs. Fluconazole, Clinical Cure [3, 7]: 11%; % Δ SCY-078 (combined) vs. Fluconazole, Clinical Cure (Updated FDA Definition) [3, 7]: 15%; Clinical Cure (Updated FDA Definition), rate [3, 8]: 70.8%; Clinical Cure, rate [3, 8]: 79.2%; Clinical Cure (Updated FDA Definition), rate [3, 9]: 69.2%; Clinical Cure, rate [3, 9]: 73.1%; % Δ SCY-078 (combined) vs. Fluconazole, Clinical Cure ([3]; Month 4): 23%; % Δ SCY-078 (combined) vs. Fluconazole, Recurrences Requiring Antifungal Therapy ([3]; Month 4): −11%; % Δ SCY-078 (combined) vs. Fluconazole, “0” Signs and Symptoms ([3]; Month 4): 15%; Clinical Cure, rate [3, 10]: 87.5%; Recurrences Requiring Antifungal Therapy, rate [3, 10]: 4.2%; “0” Signs and Symptoms, rate [3, 10]: 79.1%; Clinical Cure, rate [3, 11]: 88.46%; Recurrences Requiring Antifungal Therapy, rate [3, 11]: 3.8%; “0” Signs and Symptoms, rate [3, 11]: 80.7%; GI adverse events (e.g., nausea, diarrhea) ([3]; in vivo): higher rate of GI adverse events
